Measurements: paper PMC5349880, “P-glycoprotein-mediated chemoresistance is reversed by carbonic anhydrase XII inhibitors” (Oncotarget, 2016)

Legend:
HT29 cells = test: Cell viability (neutral red); format: cell-based, human; settings: doxorubicin alone 72 h, IC50 ratio vs doxorubicin + tariquidar 25 nM
HT29/DX cells = test: Cell viability (neutral red); format: cell-based, human; settings: HT29/DX; doxorubicin alone 72 h; IC50 ratio vs doxorubicin + tariquidar 25 nM
A549 cells = test: Cell viability (neutral red); format: cell-based, human; settings: A549; doxorubicin alone 72 h; IC50 ratio vs doxorubicin + tariquidar 25 nM
A549/DX cells = test: Cell viability (neutral red); format: cell-based, human; settings: A549/DX; doxorubicin alone 72 h; IC50 ratio vs doxorubicin + tariquidar 25 nM
MCF7 cells = test: Cell viability (neutral red); format: cell-based, human; settings: doxorubicin alone 72 h, IC50 ratio vs doxorubicin + tariquidar 25 nM
SKBR3 cells = test: Cell viability (neutral red); format: cell-based, human; settings: doxorubicin alone 72 h, IC50 ratio vs doxorubicin + tariquidar 25 nM
T74D cells = test: Cell viability (neutral red); format: cell-based, human; settings: T74D; doxorubicin alone 72 h; IC50 ratio vs doxorubicin + tariquidar 25 nM
MDA-MB-231 cells = test: Cell viability (neutral red); format: cell-based, human; settings: MDA-MB-231; doxorubicin alone 72 h; IC50 ratio vs doxorubicin + tariquidar 25 nM
TUBO cells = test: Cell viability (neutral red); format: cell-based, murine; settings: TUBO; doxorubicin alone 72 h; IC50 ratio vs doxorubicin + tariquidar 25 nM
JC cells = test: Cell viability (neutral red); format: cell-based, murine; settings: JC; doxorubicin alone 72 h; IC50 ratio vs doxorubicin + tariquidar 25 nM
U2OS cells = test: Cell viability (neutral red); format: cell-based, human; settings: doxorubicin alone 72 h, IC50 ratio vs doxorubicin + tariquidar 25 nM
U2OS/DX cells = test: Cell viability (neutral red); format: cell-based, human; settings: U2OS/DX; doxorubicin alone 72 h; IC50 ratio vs doxorubicin + tariquidar 25 nM
SaOS cells = test: Cell viability (neutral red); format: cell-based, human; settings: doxorubicin alone 72 h, IC50 ratio vs doxorubicin + tariquidar 25 nM
SaOS/DX cells = test: Cell viability (neutral red); format: cell-based, human; settings: SaOS/DX; doxorubicin alone 72 h; IC50 ratio vs doxorubicin + tariquidar 25 nM
[1] = Hematochemical parameters of tumor-bearing animals; settings: doxorubicin 5 mg/kg i.v. alone

Q: For COc1cccc2c1C(=O)c1c(O)c3c(c(O)c1C2=O)C[C@@](O)(C(=O)CO)C[C@@H]3O[C@H]1C[C@H](N)[C@H](O)[C@H](C)O1 [dox, doxorubicin, reference compound], which Rf dox (HT29 cells) is on record?
A: 1.39

Q: And the Rf dox (HT29/DX cells)?
A: 4.26

Q: What about the Rf dox (A549 cells) of the same compound?
A: 1.31

Q: And the Rf dox (A549/DX cells)?
A: 4.45

Q: And the Rf dox (MCF7 cells)?
A: 1.32

Q: What about the Rf dox (SKBR3 cells) of the same compound?
A: 2.19

Q: What about the Rf dox (T74D cells) of the same compound?
A: 0.98

Q: And the Rf dox (MDA-MB-231 cells)?
A: 4.55

Q: And the Rf dox (TUBO cells)?
A: 4.23

Q: And the Rf dox (JC cells)?
A: 7.61

Q: And the Rf dox (U2OS cells)?
A: 1.05

Q: What about the Rf dox (U2OS/DX cells) of the same compound?
A: 15.44

Q: And the Rf dox (SaOS cells)?
A: 1.43

Q: What about the Rf dox (SaOS/DX cells) of the same compound?
A: 14.97

Q: What about the ALT [1] of the same compound?
A: 37 ± 16 U/l

Q: What about the AST [1] of the same compound?
A: 288 ± 72 U/l

Q: And the CPK [1]?
A: 673 ± 172 U/l

Q: And the Creatinine [1]?
A: 0.029 ± 0.017 mg/L

Q: And the LDH [1]?
A: 6272 ± 812 U/l
